Patent publication US7045512B2 (priority 2003, dated 2006)

Experiments:
Rhizoctonia solani = assay: microbe, parasite or virus in culture; format: cell-based
[1] = system: Erysiyphe graminis f.sp. hordei; assay: Foliar spray for the control of barley powdery mildew; format: in vivo; conditions: 300 ppm, greenhouse foliar spray, barley plants
Protocol: Foliar Spray for the Control of Barley Powdery Mildew caused by Erysiyphe graminis f.sp. hordei
Technical grade material at defined ppm rates (w/v) in an acetone:water mixture (1:9) containing 0.1% Tween 20 (v/v) is sprayed to near run-off onto 7-days-old greenhouse-grown barley plants (var. “Robust”) at the cotyledon stage. Treated plants are inoculated within 24 hours by brushing mildew-infected plants over the treated plants. Inoculated plants are kept in the greenhouse for 6–8 days for disease development. Disease severity is examined and the % control is calculated as [% disease on untreated plants−% disease on treated plants]/% diseases in untreated plants. The results of these tests are shown in Table 2A below under the heading “Foliar Application—Barley Powdery Mildew”.

Colletotrichum gossypii = format: cell-based
Barley Powdery Mildew = assay: Soil drench for the control of barley powdery mildew; format: in vivo, Erysiyphe graminis f.sp. hordei; conditions: 300 ppm, greenhouse soil drench
Protocol: (§1) Soil Drench for the Control of Barley or Cucumber Powdery Mildew
(§2) Technical grade material formulated as described for foliar sprays is dispensed at defined rates (ml/cm^3) into the soil in the pots for barley and cucumber in the stages as described for the foliar sprays. Treated plants are inoculated, within 24 hours with the respective powdery mildew species as described for the foliar spray tests. Inoculated plants are kept in the greenhouse for 6–8 days for disease development. Disease severity is examined and the % control is calculated as [% disease on untreated plants−% disease on treated plants]/% disease on untreated plants. The results of these tests are shown in Table 2B below under the heading “Drench Application—Barley Powdery Mildew” and “Drench Application—Cucumber Powdery Mildew”.

Erysiyphe polygoni = assay: Foliar spray for the control of bean powdery mildew; format: in vivo; conditions: 300 ppm, greenhouse foliar spray, Pinto bean plants
Protocol: Foliar Spray for the Control of Bean Powdery Mildew Caused by Erysiyphe polygoni
Technical grade material at defined ppm rates (w/v) in an acetone:water mixture (1:9) containing 0.1% Tween 20 (v/v) is sprayed to near run-off onto greenhouse-grown Pinto bean plants (var. “Othello”) in the second leaf stage. Treated plants are inoculated within 24 hours by brushing mildew-infected plants over treated plants. Inoculated plants are kept in the greenhouse for two weeks for disease development. Disease severity is examined and the % control is calculated as [% disease on untreated plants−% disease on treated plants]/% disease on untreated plants. The results of these tests are shown in Table 2A below under the heading “Foliar Application—Bean Powdery Mildew”.

Cucumber Powdery Mildew = assay: Soil drench for the control of cucumber powdery mildew; format: in vivo; conditions: 300 ppm, greenhouse soil drench
Protocol: as §1, §2

[2] = system: Cercosporidium personatum; format: cell-based
Uromyces appendiculatus = assay: Foliar spray for the control of bean rust; format: in vivo; conditions: 300 ppm, screened against rust on beans as foliar-applied eradicant
Protocol: Foliar Spray for the Control of Bean Rust Caused by Uromyces appendiculatus
Technical grade material at defined ppm rates (w/v) in an acetone:water mixture (1:9) containing 0.1% Tween 20 (v/v) is sprayed to near run-off onto 10-days-old greenhouse-grown Pinto bean plants (var. “Othello”) in the second leaf stage. Treated plants are inoculated within 24 hours with an aqueous suspension of approximately 20,000 uredospores of Uromyces appendiculatus harvested from rust-infected plants. Inoculated plants are placed into a high humidity chamber for 24 hr and then transferred to the greenhouse for two weeks for disease development. Disease severity is examined and the % control is calculated as [% disease on untreated plants−% disease on treated plants]/% disease on untreated plants. The results of these tests are shown in Table 2A below under the heading “Foliar Application—Bean Rust”.

Fusarium nivale = assay: microbe, parasite or virus in culture; format: cell-based
Sclerotium rolfsii = format: cell-based
Sclerotinia minor = format: cell-based
Helminthosporium sativum = assay: Foliar spray for the control of barley blotch; format: in vivo; conditions: 300 ppm, greenhouse foliar spray, barley plants
Protocol: Foliar Spray for the Control of Barley Blotch Caused by Helminthosporium sativum
Technical grade material at defined ppm rates (w/v) in an acetone:water mixture (1:9) containing 0.1% Tween 20 (v/v) is sprayed to near run-off onto 7-days-old greenhouse-grown barley plants (var. “Robust”) at the cotyledon stage. Treated plants are inoculated within 24 hours from spraying with an aqueous suspension of approximately 15,000 conidia/ml of Helminthosporium sativum grown on artificial medium. Inoculated plants are placed into a high humidity chamber for 24 hr and then transferred to the greenhouse for 4–5 days for disease development. Disease severity is examined and the % control is calculated as [% disease on untreated plants−% disease on treated plants]/% disease on untreated plants.
The results of these tests are shown in Table 2A below under the heading “Foliar Application—Barley Blotch”.

Pythium ultimum = assay: microbe, parasite or virus in culture; format: cell-based
Botrytis cinerea = assay: microbe, parasite or virus in culture; format: cell-based
Phytophthora infestans [3] = assay: microbe, parasite or virus in culture; format: cell-based; conditions: in vitro, rate 100 ppm, 48 hours
Phytophthora infestans [4] = format: in vivo; conditions: 300 ppm, greenhouse foliar spray, tomato plants

SMILES	Percent Control Rhizoctonia solani (Rhizoctonia solani) [%]	Foliar Application (Percent Control) Barley Powdery Mildew [1] [%]	Percent Control Colletotricum gossypii (Colletotrichum gossypii) [%]	Drench Application (Percent Control) Barley Powdery Mildew (Barley Powdery Mildew) [%]	Foliar Application (Percent Control) Bean Powdery Mildew (Erysiyphe polygoni) [%]	Drench Application (Percent Control) Cucumber Powdery Mildew (Cucumber Powdery Mildew) [%]	Percent Control Cercosporidium personatum [2] [%]	Foliar Application (Percent Control) Bean Rust (Uromyces appendiculatus)	Percent Control Fusarium nivale (Fusarium nivale) [%]	Percent Control Sclerotium rolfsii (Sclerotium rolfsii) [%]	Percent Control Sclerotinia minor (Sclerotinia minor) [%]	Foliar Application (Percent Control) Barley Blotch (Helminthosporium sativum) [%]	Percent Control Pythium ultimum (Pythium ultimum) [%]	Percent Control Botrytis cinerea (Botrytis cinerea) [%]	Percent Control Phytophthora infestants (Phytophthora infestans [3]) [%]	Foliar Application (Percent Control) Tomato Late Blight (Phytophthora infestans [4]) [%]
COC(=O)NNc1ccc(Oc2cccnc2)cc1 [Compound 5]	0	0	100	0	0	0	0	0(e) %	90	100	100	0	70	25	20	
CCC(C)OC(=O)NN(C(=O)C(F)(F)F)c1ccc(Sc2ccccc2)cc1 (stereo not drawn) [Compound 4]	95	0	15	0	88	0	65	0(e) %	50		50	0	15	75	100	0
